# Laboratory results published in publication PMC3839082 (Proteins, 2011).
# Target: hCINAP (Homo sapiens, UniProt Q9Y3D8)
# Test: coupled PK/LDH adenylate kinase assay
# Assay type: biochemical
# Chain of hCINAP (Q9Y3D8 whole entry): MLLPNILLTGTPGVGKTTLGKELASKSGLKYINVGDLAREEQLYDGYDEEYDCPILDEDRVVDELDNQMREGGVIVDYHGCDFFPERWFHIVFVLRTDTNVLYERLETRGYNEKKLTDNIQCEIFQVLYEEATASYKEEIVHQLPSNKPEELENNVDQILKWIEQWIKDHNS
structure (smiles),measurement,value
Nc1ncnc2c1ncn2[C@@H]1O[C@H](COP(=O)(O)OP(=O)(O)OP(=O)(O)OP(=O)(O)OP(=O)(O)OC[C@H]2O[C@@H](n3cnc4c(N)ncnc43)[C@H](O)[C@@H]2O)[C@@H](O)[C@H]1O [AP5A],IC50,27 ± 2.93 nM
